Data as given in ChEMBL document CHEMBL1221408, “Cylindrocyclophanes with proteasome inhibitory activity from the Cyanobacterium Nostoc sp” (J Nat Prod, 2010).
pEC50, pIC50: −log10 of the molar value.

Key:
HT-29 = experiment: Cytotoxicity against human HT-29 cells; format: functional, cell-based
[1] = Inhibition of 20S proteasome

SMILES | pEC50 (HT-29) | pIC50 [1]
C[C@H]1CCCC[C@H](CCCC(Br)Br)c2c(O)cc(cc2O)[C@H](O)[C@@H](C)CCCC[C@H](CCCC(Br)Br)c2c(O)cc(cc2O)[C@@H]1O [CYLINDROCYCLOPHANE AB4] | 6.30 | 5.65
C[C@H]1CCCC[C@H](CCCC(Cl)Cl)c2c(O)cc(cc2O)C[C@@H](C)CCCC[C@H](CCCC(Cl)Cl)c2c(O)cc(cc2O)C1 [CYLINDROCYCLOPHANE F4] | – | 4.35
C[C@H]1CCCC[C@H](CCCCCl)c2c(O)cc(cc2O)[C@H](O)[C@@H](C)CCCC[C@H](CCCC(Cl)Cl)c2c(O)cc(cc2O)[C@@H]1O [CYLINDROCYCLOPHANE A3] | 6.30 | 5.56
C[C@H]1CCCC[C@H](CCCC(Cl)Cl)c2c(O)cc(cc2O)[C@H](O)[C@@H](C)CCCC[C@H](CCCC(Cl)Cl)c2c(O)cc(cc2O)C1 [CYLINDROCYCLOPHANE C4] | 5.55 | 4.95
CCCC[C@H]1CCCC[C@H](C)Cc2cc(O)c(c(O)c2)[C@@H](CCCC)CCCC[C@H](C)[C@@H](O)c2cc(O)c1c(O)c2 [CYLINDROCYCLOPHANE C] | – | 4.23
CCCC[C@H]1CCCC[C@H](C)[C@@H](O)c2cc(O)c(c(O)c2)[C@@H](CCCC)CCCC[C@H](C)[C@@H](O)c2cc(O)c1c(O)c2 [CYLINDROCYCLOPHANE A] | – | 4.47
C[C@H]1CCCC[C@H](CCCC(Cl)Cl)c2c(O)cc(cc2O)[C@H](O)[C@@H](C)CCCC[C@H](CCCC(Cl)Cl)c2c(O)cc(cc2O)[C@@H]1O [CYLINDROCYCLOPHANE A4] | 5.70 | 5.41
CCCC[C@H]1CCCC[C@H](C)[C@@H](O)c2cc(O)c(c(O)c2)[C@@H](CCCCCl)CCCC[C@H](C)[C@@H](O)c2cc(O)c1c(O)c2 [CYLINDROCYCLOPHANE A1] | – | 4.56
CCCC[C@H]1CCCC[C@H](C)[C@@H](O)c2cc(O)c(c(O)c2)[C@@H](CCCC(Cl)Cl)CCCC[C@H](C)[C@@H](O)c2cc(O)c1c(O)c2 [CYLINDROCYCLOPHANE A2] | 5.77 | 5.59
CCCC[C@H]1CCCC[C@H](C)Cc2cc(O)c(c(O)c2)[C@@H](CCCC(Cl)Cl)CCCC[C@H](C)[C@@H](O)c2cc(O)c1c(O)c2 [CYLINDROCYCLOPHANE C2] | 6.05 | 4.64
CCCC[C@H]1CCCC[C@H](C)Cc2cc(O)c(c(O)c2)[C@@H](CCCC)CCCC[C@H](C)Cc2cc(O)c1c(O)c2 [CYLINDROCYCLOPHANE F] | – | < 4.00
